# Non-standard residues stand in square brackets, D forms with d. Residues, ends and D or L forms follow the SMILES beside them. *: point of attachment. Sta = CC(C)C[C@H](N)[C@@H](O)CC(=O)O; Isovaleryl = CC(C)CC(=O)*
# Experiments:
# [1] = target: T1, XMRV PR (Xenotropic MuLV-related virus VP62, UniProt A1Z651); test: HPLC-based cleavage assay with peptide RSLLY-PALTP; format: biochemical; details: read-out: XMRV PR Ki; cited from earlier work
# [2] = target: T1, XMRV PR; details: previous study; cited from earlier work
# [3] = target: T1, XMRV PR; details: PDB 3SM1; cited from earlier work
# [4] = target: HIV-1 PR (Human immunodeficiency virus type 1 group M subtype B, UniProt P04585, C555A/C583A/L521I/L551I/Q495K); test: Urea dissociation of HIV-1 PR; format: physicochemical; details: half-maximal velocity; urea 0–4.0 M, 5.5 nM HIV-1 PR, 0.3 mM substrate, HPLC
# T1 sequence (A1Z651 533-657): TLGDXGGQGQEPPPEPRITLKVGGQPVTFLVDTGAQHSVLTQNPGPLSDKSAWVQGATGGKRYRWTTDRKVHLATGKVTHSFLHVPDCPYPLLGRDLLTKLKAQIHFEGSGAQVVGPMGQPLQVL
molecule,measurement,setting,value
"CC(C)CC(=O)N[C@H](C(=O)N[C@H](C(=O)N[C@@H](CC(C)C)[C@@H](O)CC(=O)N[C@@H](C)C(=O)N[C@@H](CC(C)C)[C@@H](O)CC(=O)O)C(C)C)C(C)C [Pepstatin A, pepstatin A (isovaleryl-Val-Val-Sta-Ala-Sta)] (Isovaleryl-VV[Sta]A[Sta]-OH)",Ki,[1],1.44 µM
"CC(C)CC(=O)N[C@H](C(=O)N[C@H](C(=O)N[C@@H](CC(C)C)[C@@H](O)CC(=O)N[C@@H](C)C(=O)N[C@@H](CC(C)C)[C@@H](O)CC(=O)O)C(C)C)C(C)C [Pepstatin A, pepstatin A] (Isovaleryl-VV[Sta]A[Sta]-OH)",Inhibition of XMRV PR (in words),[2],only a very weak inhibitor of XMRV PR
same,binding mode to XMRV PR (crystal structure),[3],"two inhibitor molecules binding to the enzyme, leaving the catalytic water in place"
"HIV-1 PR: Purified HIV-1 PR, containing stabilizing mutations (Q7K, L33I, L63I, C67A and C95A)",Urea dissociation (UC50),[4],1.47 M

# — publication PMC6290463 (The FEBS journal, 2012)
